Experimental data as given in patent US20210308137A1, “ANTIVIRAL COMPOUNDS AND METHOD FOR TREATING HEPATOTROPIC VIRAL INFECTION, PARTICULARLY HEPATITIS B AND HEPATITIS D” (priority 2020, published 2021).
pIC50: −log10 of the molar value.

Assays:
HBV [1] = assay: In vitro antiviral IC50 compared with Lamifudine in the same human liver cell line; type: cell-based; settings: human liver cell line as the host
Description: The potency difference is significant.

[2] = Cell viability MTT assay in Vero E6 cells; type: cell-based; settings: African green monkey
Procedure: (§1) HepG2.2.15 and HuS-E/2 cells were seeded at 1×10^4 cells/well in a 96-well plate for 20 h, then the cells were treated with the tested compounds at various concentration (0-500 μM) for 48 h. After the treatment, cell viability was examined using MTT [3-(4,5-dimethylthiazol-2-yl)-2,5-diphenyl tetrazolium bromide] assay (Sigma Chemical Co.). Briefly, a final concentration of 0.5 mg/ml MTT was added to each well and the samples were incubated for 1 h at 37° C., and then the supernatant was aspirated. The MTT-formazan crystals formed by metabolically viable cells were dissolved in 70 μl of DMSO, and the absorbance at 550 nm was measured on a microplate reader.
(§2) The compounds used were SH-001, SH-002, and SH-003. Before testing their potential antiviral effect on HBV and HDV infection, we first examined their toxicity on VeroE6 cells, HepG2.2.15 cells and HuS-E/2 immortalized human primary hepatocytes cells at concentration from 0 to 320 μM as indicated.

[3] = Cell viability MTT assay in HuS-E/2 cells; type: cell-based; settings: human
Procedure: as §1, §2

[4] = Cell viability MTT assay in HepG2.2.15 cells; type: cell-based; settings: human, 0-320 μM
Procedure: as §1, §2

HDV = assay: Inhibition of HDV infection/replication in HuS-E/2 cells (HDV RNA by real-time PCR); settings: for HDV RNA levels reduced to (percentage of non-drug-treated control): HuS-E/2 cells, 18 h infection + 48 h; for pIC50: Hepatitis delta virus, HuS-E/2, read-out: IC50 (HDV RNA); for HDV replication (in words): HuS-E/2 human hepatocytes
Procedure: HDV genome was measured by RT-PCR and expressed as the percentage of the value for the non-drug-treated controls (NT). Control PCRs were performed for endogenous GAPDH mRNA as the loading control. […] The results are the mean±SD for three independent experiments.
HuS-E/2 cells that retain primary hepatocyte characteristics after prolonged culture were utilized for HDV infection. For HDV infection, HuS-E/2 cells were differentiated with 1% DMSO for 5-7 days, and HDV virus particles were added to infect and replicate in HuS-E/2 cells (MOI=10) as described by Huang et al. (J Virol. 2012 September; 86(17):9443-53. Epub 2012 Jun. 27) The HuS-E/2 cells are useful to assay infectivity of HDV, and screening of anti-HDV agents.
The compounds were added to the medium at the indicated concentration during infection with HDV for 18 h, then the infected cells were incubated in medium containing the compounds for further 48 h. Real-time PCR was performed to detect HDV RNA as an efficiency index of HDV infection.
Total DNA was extracted with a Genomic DNA isolation kit (Nexttec Biotechnologie, Germany). Total RNA was isolated from cultured cells using TRIzol® reagent (Invitrogen). Reverse transcription was performed with the RNA templates, AMV reverse transcriptase (Roche), and oligo-dT primer. The products were subjected to real-time PCR with primer sets of specific genes and SYBR Green PCR Master Mix (Bio-Rad). The primer sets used for HBV DNA and HDV RNA were as described by Huang et al. (J Virol. 2012 September; 86(17):9443-53. Epub 2012 Jun. 27) The results were analyzed with the iCycler iQ real-time PCR detection system (Bio-Rad).
The infected cells were then washed and incubated in medium containing the tested compounds for further 48 h, and real-time PCR was used to detect HDV mRNA as an efficiency index of HDV infection.

HBV [5] = assay: Inhibition of HBV replication in HepG2.2.15 cells (HBsAg and HBeAg by ELISA, HBV DNA by real-time PCR); type: cell-based, Hepatitis B virus (ayw subtype); settings: 48 h; for HBeAg levels reduced to (percentage of non-drug-treated control) / HBsAg levels reduced to (percentage of non-drug-treated control) / amount of HBV DNA in culture medium: 10 μM; for HBeAg levels reduced to (percentage of non-drug-treated control) / HBsAg levels reduced to (percentage of non-drug-treated control): culture medium; for HBeAg levels reduced to (percentage of non-drug-treated control) / HBsAg levels reduced to (percentage of non-drug-treated control) / levels of HBeAg in the culture supernatant (in words) / levels of HBsAg in the culture supernatant (in words) / pIC50: ELISA; for amount of HBV DNA in culture medium: untreated cells 3.43*10^5 copies/ml; for levels of HBeAg in the culture supernatant (in words) / levels of HBsAg in the culture supernatant (in words) / HBV DNA (in words) / pIC50: HepG2.2.15 cells; for HBV DNA (in words): Q-PCR, dose-dependent; for pIC50: Hepatitis B virus, estimated
Description: Plasmid p1.3HBcl, which contains a 1.3-fold HBV genome (ayw subtype), was used as standard in parallel PCR reactions. The results are expressed as a percentage of the non-drug-treated positive control (NT) and are shown as mean±SD for three independent experiments.
Continuous HBV proliferation can be achieved in HepG2.2.15 cells (RRID:CVCL_L855) stably transfected with the HBV genome of the ayw subtype. HepG2.2.15 cells were maintained in Dulbecco's modified Eagle medium (DMEM; Invitrogen) supplemented with 10% heat-inactivated fetal bovine serum (FBS; Thermo) plus 100 units of penicillin and 100 μg of streptomycin per ml (both from Invitrogen).
The viruses were then collected from the supernatant. Q-PCR was used to detect HBV DNA as an index of efficiency of HBV replication. Next, the HBV HBsAg and HBeAg were examined by ELISA assay.
The culture medium from compound-treated HepG2.2.15 cells was clarified by centrifugation at 1,000×g at 4° C. for 10 min, and then the supernatant was layered on top of a 20% sucrose cushion (20% sucrose, 20 mM HEPES, pH 7.4, 0.1% bovine serum albumin [BSA]) and centrifuged at 197,000×g for 3 h at 4° C. to pellet the HBV particles. The particles were then concentrated 100 fold to detect HBV DNA.
Q-PCR was performed to detect HBV DNA as an efficiency index of HBV replication. Moreover, the HBV HBsAg and HBeAg were examined by ELISA assay.

SMILES | pIC50 (HBV [1]; Hepatitis B virus) | CC50 at 48 h [4] [µM] | pIC50 (HDV) | HDV replication (in words) (HDV) | HBeAg levels reduced to (percentage of non-drug-treated control) (HBV [5]) [%] | HBsAg levels reduced to (percentage of non-drug-treated control) (HBV [5]) [%] | amount of HBV DNA in culture medium (HBV [5]) | levels of HBeAg in the culture supernatant (in words) (HBV [5]) | levels of HBsAg in the culture supernatant (in words) (HBV [5]) | HBV DNA (in words) (HBV [5]) | pIC50 (HBV [5]; read-out: IC50 (HBeAg)) | pIC50 (HBV [5]; read-out: IC50 (HBsAg)) | CC50 at 48 h [2] [µM] | further results
O=C(O)c1ccc2c(c1)nc(Nc1cccc(Cl)c1)c1ccncc12 [SH-001, Silmitasertib] | ≤ 8.30 | > 195 | ~6.84 | significantly inhibited | 53.66±3.02 | 39.85±1.78 | 5.51*10^4 copies/ml | significantly decreased | significantly decreased | repressed | 4.92 | 5.18 | – | CC50 at 48 h ([2]; VeroE6 cells, 48 h, MTT, 0-320 μM, read-out: CC50): > 205 µM; CC50 at 48 h ([3]; HuS-E/2 cells, 48 h, MTT, 0-320 μM, read-out: CC50): > 195 µM; HDV RNA levels reduced to (percentage of non-drug-treated control) (HDV; 2.5 μM): 28.8±22.8%; HDV RNA levels reduced to (percentage of non-drug-treated control) (HDV; 5 μM): 8.7±1.3%
Nc1ccn([C@@H]2CS[C@H](CO)O2)c(=O)n1 [Lamifudine, reference compound] | – | – | – | – | – | – | – | – | – | – | – | – | – | pIC50 (HBV [1]): 6.45
O=C1NC(=O)/C(=C/c2cnn3c(NC4CC4)cc(Nc4cc(Cl)ccc4F)nc23)N1 [SH-002] | ≤ 8.30 | > 164 | ~7.16 | significantly inhibited | 61.18±6.43 | 52.01±3.05 | 3.13*10^4 copies/ml | significantly decreased | significantly decreased | repressed | 3.78 | 4.93 | > 61.3 | CC50 at 48 h [3]: > 164 µM; HDV RNA levels reduced to (percentage of non-drug-treated control) (HDV; 0.1 μM): 53.1±16.8%; HDV RNA levels reduced to (percentage of non-drug-treated control) (HDV; 0.2 μM): 40.8±18.6%
CC(N)C(=O)OCN1C(=O)N/C(=C\c2cnn3c(NC4CC4)cc(Nc4cc(Cl)ccc4F)nc23)C1=O (stereo not shown) [SH-003] | – | – | – | – | – | – | – | – | – | – | – | – | > 205 | –
